The OligoGym collection
Values joined by “and” are separate entries in the source; they are usually repeats but may differ in a detail not shown here. Equal entries are not always repeated. After the bases stand the sugars from the 5' end (letter, count) and the backbone: PS all phosphorothioate, else s phosphorothioate and o phosphodiester by linkage. Methylation of C is not given here. e = 2'-O-(2-methoxyethyl) (MOE); k = constrained ethyl (cEt); d = 2'-deoxy (DNA)

Target: KRAS
Conditions: ASO

Sequence | target mRNA inhibition (A431, 2 µM) | other results
CCATTCAAAGTTCACA (sugars kkkddddddddkekek, PS) | 39% | 
CCATTTATGTGACTAG (sugars k3 d9 k3 e1, PS) | 49% | target mRNA inhibition (A431, 0.185 µM): 28%; target mRNA inhibition (A431, 0.556 µM): 47%; target mRNA inhibition (A431, 1.667 µM): 53%; target mRNA inhibition (A431, 5 µM): 66%
CCATTTATGTGACTAG (sugars k3 d10 k3, PS) | 94% and 75% | target mRNA inhibition (A431, 0.125 µM): 70% and 67%; target mRNA inhibition (A431, 0.185 µM): 30% and 14%; target mRNA inhibition (A431, 0.556 µM): 56% and 35%; target mRNA inhibition (A431, 5 µM): 83% and 72%; target mRNA inhibition (NCI-H460, 0.037 µM): 52.4%
CCATTTATGTGACTAG (sugars kkddddddddddkeke, PS) | 46% | 
CTCTCTATGAAAGCTC (sugars k3 d10 k3, PS) | 29% | 
CTGAATTAGTCTCCAT (sugars k3 d10 k3, PS) | 48% | 
CTTGATTTGTCAGCAG (sugars k3 d10 k3, PS) | 51% and 44% | 
CTTGATTTGTCAGCAG (sugars kddddddddddkekek, PS) | 45% | target mRNA inhibition (A431, 0.037 µM): 62%
CTTGATTTGTCAGCAG (sugars kdddddddddkekeke, PS) | 44% | target mRNA inhibition (A431, 0.037 µM): 51%
CTTGATTTGTCAGCAG (sugars kkddddddddddkeke, PS) | 54% | 
CTTGATTTGTCAGCAG (sugars kkddddddddkekekk, PS) | 33% | target mRNA inhibition (A431, 0.037 µM): 55%
CTTGATTTGTCAGCAG (sugars kkkdddddddddkeke, PS) | 46% | 
CTTTTAATGTCACAAG (sugars k3 d10 k3, PS) | 9% | 
GAAAAGTGTTTATGCA (sugars k3 d10 k3, PS) | 60% | 
GAGAATGGATATTCAA (sugars k3 d10 k3, PS) | 8% | 
GAGTCTTTATAGTAAT (sugars kdddddddddkekeke, PS) | 21% | 
GATTGTGCTGAGCTTG (sugars k3 d9 k3 e1, PS) | 30% | 
GATTGTGCTGAGCTTG (sugars k3 d10 k3, PS) | 63% | 
GCATTGCTAGTTCAAA (sugars k3 d10 k3, PS) | 46% | 
GCTATAATAATCCCCA (sugars k3 d10 k3, PS) | 56% | target mRNA inhibition (A431, 0.185 µM): 1%; target mRNA inhibition (A431, 0.556 µM): 24%; target mRNA inhibition (A431, 1.667 µM): 55%; target mRNA inhibition (A431, 5 µM): 68%
GCTGTGAAACTCTCTA (sugars k3 d10 k3, PS) | 42% | 

Sequence | target mRNA inhibition (A431, 2 µM) | other results
GCTGTGAAACTCTCTA (sugars kddddddddddkekek, PS) | 41% | 
GCTGTGAAACTCTCTA (sugars kkddddddddkekekk, PS) | 16% | 
GGTTAGGGGAATTACA (sugars k3 d10 k3, PS) | 26% | 
GTAATTAATCCATTTA (sugars k3 d10 k3, PS) | 15% | 
GTAGGGCATTTCTGAT (sugars k3 d10 k3, PS) | 14% | 
GTATCTTGTTGAGCTA (sugars k3 d10 k3, PS) | 56% | 
GTCCAGTGATACTTTC (sugars kkdddddddddkekek, PS) | 43% | 
GTCCAGTGATACTTTC (sugars kkkddddddddkekek, PS) | 21% | 
GTGAATATCTTCAAAT (sugars k3 d10 k3, PS) | 0% | 
GTGTTTATGCAATGTT (sugars k3 d10 k3, PS) |  | target mRNA inhibition (A431, 0.125 µM): 83%; target mRNA inhibition (A431, 0.185 µM): 31%; target mRNA inhibition (A431, 0.556 µM): 52%; target mRNA inhibition (A431, 1.667 µM): 77%; target mRNA inhibition (A431, 5 µM): 89%; target mRNA inhibition (NCI-H460, 0.037 µM): 76.8%
GTGTTTATGCAATGTT (sugars kkddddddddddkeke, PS) | 73% | target mRNA inhibition (A431, 0.185 µM): 44%; target mRNA inhibition (A431, 0.556 µM): 71%; target mRNA inhibition (A431, 1.667 µM): 83%; target mRNA inhibition (A431, 5 µM): 92%
GTGTTTATGCAATGTT (sugars kkkddddddddkekek, PS) | 66% | target mRNA inhibition (A431, 0.185 µM): 33%; target mRNA inhibition (A431, 0.556 µM): 55%; target mRNA inhibition (A431, 1.667 µM): 69%; target mRNA inhibition (A431, 5 µM): 78%
GTTTATGCAATGTTAA (sugars k3 d10 k3, PS) | 55% | 
TAAAAAAAAAATTAAT (sugars k3 d10 k3, PS) | 1% | 
TAACCAGTGTTAAGAG (sugars k3 d10 k3, PS) | 40% | 
TAATAATCCCCATTTC (sugars k3 d10 k3, PS) | 9% | 
TAATCTTTTAATGTCA (sugars k3 d10 k3, PS) | 7% | 
TAATGGTGAATATCTT (sugars k3 d10 k3, PS) | 11% | 
TACTAGTATGCCTTAA (sugars k3 d10 k3, PS) | 16% | 
TACTTTTTGACAAATG (sugars k3 d10 k3, PS) | 37% | 
TAGGGCATTTCTGATG (sugars k3 d10 k3, PS) | 20% | 

Sequence | target mRNA inhibition (A431, 2 µM) | other results
TAGTGATTAGGTCAAA (sugars k3 d10 k3, PS) | 21% | 
TAGTGATTAGGTCAAA (sugars kkdddddddddkekek, PS) | 51% | 
TAGTGATTAGGTCAAA (sugars kkddddddddkekekk, PS) | 42% | 
TATAATGGTGAATATC (sugars k3 d10 k3, PS) | 7% | 
TATTAGGAGTCTTTAT (sugars k3 d10 k3, PS) | 13% | 
TCAACTGCATGCACCA (sugars k3 d10 k3, PS) | 52% | 
TCACTTCATTGTTTAA (sugars k3 d10 k3, PS) | 32% | 
TCATTACTTTTTGACA (sugars k3 d10 k3, PS) | 4% | 
TCCAGTGATACTTTCA (sugars k3 d9 k3 e1, PS) | 47% | 
TCCAGTGATACTTTCA (sugars k3 d10 k3, PS) | 51% | 
TCCATTTATGTGACTA (sugars k3 d9 k3 e1, PS) | 23% | 
TCCATTTATGTGACTA (sugars kdddddddddkekeke, PS) | 15% | 
TCCATTTATGTGACTA (sugars kkddddddddddkeke, PS) | 22% | 
TCCATTTATGTGACTA (sugars kkddddddddkekekk, PS) | 29% | 
TCTCTATGAAAGCTCA (sugars k3 d10 k3, PS) | 50% | target mRNA inhibition (A431, 0.037 µM): 61%; target mRNA inhibition (A431, 5 µM): 96% and 92%; target mRNA inhibition (NCI-H460, 0.037 µM): 49.7%
TGACTAATAGCAGTGG (sugars k3 d10 k3, PS) | 58% | target mRNA inhibition (A431, 0.037 µM): 64%; target mRNA inhibition (A431, 5 µM): 96% and 93%; target mRNA inhibition (NCI-H460, 0.037 µM): 53.3%
TGATTTGTCAGCAGGA (sugars k3 d9 k3 e1, PS) | 63% | target mRNA inhibition (A431, 0.185 µM): 26%; target mRNA inhibition (A431, 0.556 µM): 52%; target mRNA inhibition (A431, 1.667 µM): 70%; target mRNA inhibition (A431, 5 µM): 80%
TGATTTGTCAGCAGGA (sugars k3 d10 k3, PS) | 59% | target mRNA inhibition (A431, 0.185 µM): 19% and 0%; target mRNA inhibition (A431, 0.556 µM): 58% and 36%; target mRNA inhibition (A431, 1.667 µM): 72% and 58%; target mRNA inhibition (A431, 5 µM): 81% and 74%
TGATTTGTCAGCAGGA (sugars kddddddddddkekek, PS) | 47% | 
TGATTTGTCAGCAGGA (sugars kkdddddddddkekek, PS) | 45% | 
